Results from US6479466B1, “Compositions for treating viral infections, and methods therefor” (University of Maryland, priority 1999, dated 2002).
Where two headings read alike, the source gives them in different places.

Experiments:
HTLV-IIIB = assay: p24 antigen production in PHA-activated PBMCs infected with HTLV-IIIB; assay type: cell-based, HIV-1; settings: for inhibition at 10 µM / IC90: Human immunodeficiency virus 1, IIIB, PBMC; for IC90: read-out: IC90 (concentration of nucleoside analog that reduced the p24 antigen value of the untreated control by 90%)
Text: The antiviral activities of RV alone and in combination with nucleoside analogs were investigated in PHA-stimulated PBMCs from seronegative donors. RV, ddC, ddI, and AZT were purchased from Sigma (St. Louis, Mo.). The HIV-1 T-cell line adapted isolate HTLV-IIIB was obtained from Dr. Gallo, at the National Institutes of Health AIDS Research and Reference Reagent Program (Catalog #398, Rockville, Md.). Primary strains of HIV-1 were isolated by coculturing 10^7 patient PBMC with an equal number of PHA-stimulated PBMC from a normal donor. Titration of stocks and MT-2 phenotype determination were carried out as described (ACTG Virology Manual, NIH Pub No. 94 3828, 1994). The SI phenotype was determined by assessing viral growth and syncytia formation in the MT-2 cell line obtained from Dr. Richman at the National Institutes of Health AIDS Research and Reference Reagent Program (Catalog #237, Rockville, Md.).
Primary PBMCs were separated from whole blood of HIV seronegative donors by density centrifugation over Ficoll-Hypaque (Sigma). The culture medium consisted of RPMI supplemented with 10% fetal bovine serum (FBS), 2 mM glutamine and penicillin/streptomycin (Gibco, Grand Island, N.Y.).
For infection studies involving PBMCs, cells were stimulated with 2.5 or 10 μg/ml phytohemagglutinin (PHA; Boehringer Mannheim, Indianapolis, Ind.) for 3 days. Stimulated PBMCs were infected by incubation with virus at a multiplicity of infection of 1000 TCID50/10^6 PBMC for 2 hours. PBMCs were then washed three times with PBS and cultured in 5% CO2 at 37° C., in RPMI/10% FBS supplemented with 10 units/ml IL-2 (Boehringer Mannheim) and drugs as appropriate. PBMCs were seeded in 96-well flat-bottom plates at a density of 2×10^5 PBMCs/200 μl. Following 3 days of culture half of the medium was replaced with fresh medium containing IL-2 and drugs. After 7 days of culture, HIV-1 p24 antigen production in the culture supernatant was assayed by ELISA (Coulter, Hialeah, Fla.). The concentration of nucleoside analog, alone and in combination with resveratrol, that reduced the p24 antigen value of the untreated control by 90% (IC90) was calculated by using nonparametric regression analysis. The analysis used the median-effect equation, Fa=1/[1+(Dm/D)]^m, where D is the dose, Fa is the fraction affected, and Dm is the dose required to produce the median effect.
Cells were infected with the T-cell tropic isolate HTLV-IIIB for 2 hours, and then cultured in varying concentrations of RV with or without nucleoside analogs. Virus replication was measured by p24 antigen production by ELISA using a standard commercial kit in the culture supernatants on days 7 and 10 after infection.
Activated PBMCs infected with HTLV-IIIB were cultured in the presence of ddI plus HU (100 μM) or RV (5 and 10 μM). […] Virus production in the presence of the different drug concentrations was evaluated on day 7 after infection.

PHA-activated PBMCs [1] = assay: Cell viability by trypan blue staining in PHA-activated PBMCs; assay type: cell-based, human
Procedure: The effect of RV and […] on PBMC proliferation at the concentrations shown to enhance the anti-HIV effect of ddI were examined. Cellular proliferation in culture in the presence or absence of drugs was measured by commercial MTT assay, according to the manufacturer's instructions (Boehringer Mannheim). Cell viability was determined by trypan blue staining.
In a separate study designed to assess cell viability by trypan blue staining, PHA-activated PBMCs were cultured for 7 days in the presence of IL-2, 2 μM ddI, plus varying concentrations of RV. When RV was used at 25 μM, over 60% of cells became trypan blue stained, therefore indicating cell death. In the absence of RV or when RV was used at 5 or 10 μM, values of more than 95% cell viability were obtained.

PHA-activated PBMCs [2] = assay: 3H-thymidine incorporation (DNA synthesis) assay in proliferating PBMCs; assay type: cell-based, human; settings: RV 10 μM; day 2
Procedure: For example, a thymidine incorporation assay using PBMC's may be carried out as follows. PBMC's are suspended, then 0.1 ml (100,000) of cells are added to each designated well of a 96-well plate. The plates are placed into a 37° C., 5% CO2, 95% humid incubator for the predetermined incubation periods—normally 2 and 5 days. At the end of the incubation period, and at a standard time prior to harvesting the plate (6-18 hours), 1.0-1.5 μCi (20 μl of 50-75 mCi/ml in complete medium) of [^3H]-labeled methyl thymidine is added to each well of the assay. The plates are then incubated for the remaining 6-18 hours. At the end of the [^3H]-thymidine pulse, the plates are harvested onto filter paper using a semi-automated multi-well harvester. The filter paper containing bound DNA may be dried using either ethanol or by moderate microwave heating. The filter paper samples are counted in a scintillation counter using standard procedures.
Proliferating PBMCs were cultured in the presence of RV or HU for 5 days. On day 2 and 5 an MTT assay and a ^3H-thymidine incorporation assay were performed.

[3] = test system: HIV-174V isolate (L74V mutation in the RT gene); assay: p24 antigen in activated PBMCs infected with ddI-resistant isolate 74V; assay type: cell-based, HIV-1
Text: (§1) The present example provides data to test whether viral isolates carrying mutations in the RT gene that confer resistance to ddI could be rendered sensitive when the nucleoside analogue was combined with RV. Viruses containing one or more of the mutations associated with resistance to ddI, e.g., an isolate carrying the L74V mutation which confers primary resistance to ddI, a virus isolate carrying 4 different resistance-associated mutations in the RT gene (HIV-1 RTMDR1) were used to infect PHA-stimulated PBMCs. The HIV-174V isolate, and the HIV-1RTMDR1 isolate (containing the M41L, L74V, V106A and T215Y mutations, conferring resistance to AZT, ddI, nevirapine and other non-nucleotide RT inhibitors) were obtained from Dr. Larder at the National Institutes of Health AIDS Research and Reference Reagent Program (Catalog #2528 and #2529, respectively, Rockville, Md.). In addition, viruses having mutations 65R, 74V, 184V in the RT gene, and a virus containing the multiple-nucleoside-resistance mutation 151M were assayed in infectivity assays using RV plus ddI. The mutations present in the RT gene of each virus as well as their susceptibility to ddI are as follows: HIV-174V(ddIIC90=2.6 μM); HIV-141L, 74V, 106A, 215Y (ddIIC90=4.5 μM); HIV-165R, 74V, 184V (ddIIC90>20 μM) and HIV-162V, 751, 77L, 151M (ddIIC90>20 μM). […]

[4] = test system: HIV-1RTMDR1 isolate (M41L, L74V, V106A and T215Y); assay: p24 antigen in activated PBMCs infected with isolate RTMDR1; assay type: cell-based
Text: as §1

HIV-165R, 74V, 184V = assay: p24 antigen in activated PBMCs infected with isolate 65R, 74V, 184V; assay type: cell-based, HIV-1; settings: Human immunodeficiency virus 1, PBMC, read-out: ddI IC90
Text: as §1

HIV-162V, 751, 77L, 151M = assay: p24 antigen in activated PBMCs infected with isolate 62V, 75I, 77L, 151M; assay type: cell-based, HIV-1; settings: Human immunodeficiency virus 1, PBMC, read-out: ddI IC90
Text: as §1

[5] = Human immunodeficiency virus 1, PBMC, read-out: ddI IC90

| SMILES | inhibition at 10 µM (HTLV-IIIB; 168 h, 10 μM RV combined with 0.5 μM ddI, day 7, read-out: inhibition of virus replication) | inhibition at 10 µM (HTLV-IIIB; 168 h, 10 μM RV in combination with 0.25 μM ddI, day 7, read-out: inhibition of HIV-1 replication) | inhibition at 10 µM (HTLV-IIIB; RV 10 μM alone, read-out: inhibition of viral replication) | reduction of virus production (HTLV-IIIB; RV 5 μM alone) | toxicity to cells (PHA-activated PBMCs [1]; RV 10 μM) | trypan blue stained cells (cell death) (PHA-activated PBMCs [1]; RV 25 μM, 7 days, with IL-2 and 2 μM ddI) | cell viability (PHA-activated PBMCs [1]; RV 5 or 10 μM, 7 days, with IL-2 and 2 μM ddI) | 3H-thymidine incorporation (DNA synthesis) (PHA-activated PBMCs [2]) | IC90 (HTLV-IIIB; 168 h, in combination with 5 μM RV, day 7) | IC90 (HTLV-IIIB; 168 h, nucleoside analog alone, day 7) | increase in antiviral activity (HTLV-IIIB; addition of 10 μM RV to 2 μM ddI) | reduction of IC90 value (HTLV-IIIB; in combination with 5 μM RV) | reduction of IC90 value (HTLV-IIIB; in the presence of 10 μM RV) | suppression of viral replication ([3]; 2 μM ddI alone) | IC90 [3, 5] | suppression of viral replication ([4]; 2 μM ddI alone) | IC90 [4, 5] | IC90 (HIV-165R, 74V, 184V) | IC90 (HIV-162V, 751, 77L, 151M) |
| --- | --- | --- | --- | --- | --- | --- | --- | --- | --- | --- | --- | --- | --- | --- | --- | --- | --- | --- | --- |
| Oc1ccc(/C=C/c2cc(O)cc(O)c2)cc1 [RV, trans-3, 4′, 5-trihydroxystilbene] | > 99% | 94% | ~30% | approximately 10% | not toxic | over 60% | more than 95% | higher amounts of ^3H-thymidine incorporation than the untreated control |  |  |  |  |  |  |  |  |  |  |  |
| OC[C@@H]1CC[C@H](n2cnc3c(O)ncnc32)O1 [ddI, 2′,3′-dideoxyinosine] |  |  |  |  |  |  |  |  | 1.3 µM | 7.5 µM | 200 fold | 5.7 fold | 17.8 fold | 28% | 2.6 µM | 34% | 4.5 µM | > 20 µM | > 20 µM |
